Laboratory results reported in article PMC6440935, “Characterization and phase I study of CLR457, an orally bioavailable pan-class I PI3-kinase inhibitor” (Investigational New Drugs, 2018).
Read-outs that look alike come from different tables or passages of the source.

[1] = drug-related, All Patients, N = 31
[2] = drug-related, all patients N = 31
[3] = suspected related, all patients

Description: The primary objective was to define the maximum tolerated dose (MTD). Secondary objectives included assessments for safety, tolerability, pharmacokinetic (PK) profile, and preliminary antitumor activity.
Patients had histologically documented locally advanced or metastatic solid tumors harboring an activating PIK3CA mutation or amplification, PTEN loss of function, c-MET activation, [16, 17] […] Other key inclusion criteria included age ≥ 18 years, Eastern Cooperative Oncology Group performance status (ECOG-PS) ≤2, adequate organ function, measurable or non-measurable disease as determined by Response Evaluation Criteria in Solid Tumors (RECIST) version 1.1.
The starting dose for CLR457 was 5 mg QD, based on preclinical toxicology studies in accordance with ICH guidelines, and was administered at the same time each day ±2 h in a fasted state. Various doses were planned up to 300 mg QD until MTD determination.
Safety was evaluated by incidence, nature, severity, and relatedness of adverse events (AEs), and graded according to National Cancer Institute - Common Terminology Criteria for Adverse Events (NCI CTCAE) v4.0.3. DLTs were defined as any hematologic or non-hematologic ≥ Grade 3 AE assessed as possibly related to CLR457 that occurred within the first cycle (28 days) of treatment. In addition, uncontrolled (> 14 days) Grade 2 rash or hyperglycemia were also considered DLTs. All AEs regardless of attribution were collected until 30 days following the last administration of treatment or study discontinuation/termination.
Descriptive methods were used to tabulate toxicity and response endpoints in the clinical trial. All patients treated with CLR457 were included for safety. […] Dose escalation was guided by an adaptive Bayesian logistic regression model (BLRM) incorporating the escalation with overdose control (EWOC) principle. […] The study data (including DLTs during cycle 1 and other safety and PK data) were reviewed by the sponsor and trial investigators at each dose level. […] The Full Analysis Set (FAS) included all patients who received at least one dose of CLR457. Safety set included all patients who received at least one dose of CLR457 and had at least one valid post-baseline assessment. The Dose-determining set (DDS) included all patients from the safety set who either met the following minimum exposure criterion and had sufficient safety evaluations, or experienced a DLT during Cycle 1 (the first 28 days of dosing). The Pharmacokinetic analysis set included all patients who had at least one blood sample providing evaluable PK data.

Compound: C[C@H]1OC(=O)N(c2cc(-c3cnc(N)nc3C(F)(F)F)nc(N3CCOCC3)n2)[C@H]1CO [CLR457]
- Dehydration, All Grade (drug-related, 100 mg, N = 11): 1 (9.1) n (%)
- Dehydration, Grade ≥ 3 (drug-related, 100 mg, N = 11): 0 n (%)
- Diarrhea, All Grade (drug-related, 100 mg, N = 11): 5 (45.5) n (%)
- Diarrhea, Grade ≥ 3 (drug-related, 100 mg, N = 11): 1 (9.1) n (%)
- Dry mouth, All Grade (drug-related, 100 mg, N = 11): 1 (9.1) n (%)
- Dry mouth, Grade ≥ 3 (drug-related, 100 mg, N = 11): 0 n (%)
- Dry skin, All Grade (drug-related, 100 mg, N = 11): 1 (9.1) n (%)
- Dry skin, Grade ≥ 3 (drug-related, 100 mg, N = 11): 0 n (%)
- Dysgeusia, All Grade (drug-related, 100 mg, N = 11): 3 (27.3) n (%)
- Dysgeusia, Grade ≥ 3 (drug-related, 100 mg, N = 11): 0 n (%)
- Fatigue, All Grade (drug-related, 100 mg, N = 11): 4 (36.4) n (%)
- Fatigue, Grade ≥ 3 (drug-related, 100 mg, N = 11): 1 (9.1) n (%)
- Headache, All Grade (drug-related, 100 mg, N = 11): 1 (9.1) n (%)
- Headache, Grade ≥ 3 (drug-related, 100 mg, N = 11): 0 n (%)
- Hyperglycemia, All Grade (drug-related, 100 mg, N = 11): 4 (36.4) n (%)
- Hyperglycemia, Grade ≥ 3 (drug-related, 100 mg, N = 11): 1 (9.1) n (%)
- Hypomagnesaemia, All Grade (drug-related, 100 mg, N = 11): 1 (9.1) n (%)
- Hypomagnesaemia, Grade ≥ 3 (drug-related, 100 mg, N = 11): 0 n (%)
- Maculo-papular rash, All Grade (drug-related, 100 mg, N = 11): 7 (63.6) n (%)
- Maculo-papular rash, Grade ≥ 3 (drug-related, 100 mg, N = 11): 5 (45.5) n (%)
- Nausea, All Grade (drug-related, 100 mg, N = 11): 4 (36.4) n (%)
- Nausea, Grade ≥ 3 (drug-related, 100 mg, N = 11): 0 n (%)
- Pneumonitis, All Grade (drug-related, 100 mg, N = 11): 2 (18.2) n (%)
- Pneumonitis, Grade ≥ 3 (drug-related, 100 mg, N = 11): 2 (18.2) n (%)
- Pruritus, All Grade (drug-related, 100 mg, N = 11): 3 (27.3) n (%)
- Pruritus, Grade ≥ 3 (drug-related, 100 mg, N = 11): 0 n (%)
- Pyrexia, All Grade (drug-related, 100 mg, N = 11): 3 (27.3) n (%)
- Pyrexia, Grade ≥ 3 (drug-related, 100 mg, N = 11): 0 n (%)
- Rash, All Grade (drug-related, 100 mg, N = 11): 3 (27.3) n (%)
- Rash, Grade ≥ 3 (drug-related, 100 mg, N = 11): 1 (9.1) n (%)
- Stomatitis, All Grade (drug-related, 100 mg, N = 11): 9 (81.8) n (%)
- Stomatitis, Grade ≥ 3 (drug-related, 100 mg, N = 11): 0 n (%)
- Vomiting, All Grade (drug-related, 100 mg, N = 11): 2 (18.2) n (%)
- Vomiting, Grade ≥ 3 (drug-related, 100 mg, N = 11): 0 n (%)
- Weight decreased, All Grade (drug-related, 100 mg, N = 11): 0 n (%)
- Weight decreased, Grade ≥ 3 (drug-related, 100 mg, N = 11): 0 n (%)
- Asthenia, All Grade [1]: 3 (9.7) n (%)
- Asthenia, Grade ≥ 3 [1]: 0 n (%)
- Chills, All Grade [1]: 2 (6.5) n (%)
- Chills, Grade ≥ 3 [1]: 0 n (%)
- Colitis, All Grade [1]: 2 (6.5) n (%)
- Colitis, Grade ≥ 3 [1]: 2 (6.5) n (%)
- Cough, All Grade [1]: 2 (6.5) n (%)
- Cough, Grade ≥ 3 [1]: 0 n (%)
- Decreased appetite, All Grade [1]: 7 (22.6) n (%)
- Decreased appetite, Grade ≥ 3 [1]: 0 n (%)
- Decreased neutrophil count, All Grade [1]: 2 (6.5) n (%)
- Decreased neutrophil count, Grade ≥ 3 [1]: 1 (3.2) n (%)
- Dehydration, All Grade [1]: 2 (6.5) n (%)
- Dehydration, Grade ≥ 3 [1]: 1 (3.2) n (%)
- Diarrhea, All Grade [1]: 12 (38.7) n (%)
- Diarrhea, Grade ≥ 3 [1]: 2 (6.5) n (%)
- Dry mouth, All Grade [1]: 2 (6.5) n (%)
- Dry mouth, Grade ≥ 3 [1]: 0 n (%)
- Dry skin, All Grade [1]: 2 (6.5) n (%)
- Dry skin, Grade ≥ 3 [1]: 0 n (%)
- Dysgeusia, All Grade [1]: 4 (12.9) n (%)
- Dysgeusia, Grade ≥ 3 [1]: 0 n (%)
- Fatigue, All Grade [1]: 9 (29.0) n (%)
- Fatigue, Grade ≥ 3 [1]: 1 (3.2) n (%)
- Headache, All Grade [1]: 2 (6.5) n (%)
- Headache, Grade ≥ 3 [1]: 0 n (%)
- Hyperglycemia, All Grade [1]: 7 (22.6) n (%)
- Hyperglycemia, Grade ≥ 3 [1]: 1 (3.2) n (%)
- Hypomagnesaemia, All Grade [1]: 2 (6.5) n (%)
- Hypomagnesaemia, Grade ≥ 3 [1]: 0 n (%)
- Maculo-papular rash, All Grade [1]: 11 (35.5) n (%)
- Maculo-papular rash, Grade ≥ 3 [1]: 8 (25.8) n (%)
- Nausea, All Grade [1]: 9 (29.0) n (%)
- Nausea, Grade ≥ 3 [1]: 0 n (%)
- Pneumonitis, All Grade [1]: 2 (6.5) n (%)
- Pneumonitis, Grade ≥ 3 [1]: 2 (6.5) n (%)
- Pruritus, All Grade [1]: 5 (16.1) n (%)
- Pruritus, Grade ≥ 3 [1]: 0 n (%)
- Pyrexia, All Grade [1]: 4 (12.9) n (%)
- Pyrexia, Grade ≥ 3 [1]: 0 n (%)
- Rash, All Grade [1]: 6 (19.4) n (%)
- Rash, Grade ≥ 3 [1]: 2 (6.5) n (%)
- Stomatitis, All Grade [1]: 14 (45.2) n (%)
- Stomatitis, Grade ≥ 3 [1]: 0 n (%)
- Vomiting, All Grade [1]: 5 (16.1) n (%)
- Vomiting, Grade ≥ 3 [1]: 0 n (%)
- Weight decreased, All Grade [1]: 2 (6.5) n (%)
- Weight decreased, Grade ≥ 3 [1]: 0 n (%)
- Decreased appetite, any grade [2]: 22.6%
- Diarrhea, any grade [2]: 38.7%
- Fatigue, any grade [2]: 29%
- Hyperglycemia, any grade [2]: 22.6%
- Maculo-papular rash, any grade [2]: 35.5%
- Nausea, any grade [2]: 29%
- Stomatitis, any grade [2]: 45.2%
- Drug-related AEs leading to discontinuation of study treatment (in vivo): 16.1%
- SAEs suspected to be related to the study treatment (in vivo): 22.6%
- Patients with DLTs (of 31 patients treated, 5-100 mg QD): 4 patients
- SAE colitis [3]: 6.5%
- SAE diarrhea [3]: 6.5%
- SAE pneumonitis [3]: 6.5%
